Results taken from patent US20260108483A1, “METHODS AND COMPOSITIONS FOR PREVENTING THE PROGRESSION OF DIABETIC RETINOPATHY AND RELATED CONDITIONS” (Opus Genetics, Inc., priority 2023, published 2026).

Assays:
Type in all cases: in vivo, human
[1] = Clinical study safety: aspartate aminotransferase in subjects' blood; details: combined placebo + Compound 1 patients; for Mean Concentration of Aspartate Aminotransferase in Subjects' Blood: Baseline 19.7
Text: (§1) The study was configured as a placebo-controlled, double-masked, randomized, Phase 2 study in approximately 100 subjects with moderately severe to severe NPDR (diabetic retinopathy severity score [DRSS] Level 47 or 53, see FIG. 1) or mild PDR (DRSS Level 61), evaluating safety and efficacy following administration of Compound 1 twice daily for 24 weeks. The study was configured for a 1:1 randomization (placebo: Compound 1). Randomization was stratified by level of disease severity (NPDR or PDR). Subjects with mild PDR were capped at 20% for each arm. Efficacy evaluations at 12 and/or 24 weeks included DRSS, center-involved diabetic macular edema (DME), moderate PDR or PDR-related adverse events (AEs), best-corrected visual acuity (BCVA), and central subfield thickness (CST). Further experimental procedures and results are described below.
(§2) At the Qualification/Baseline (Visit 2, Day 1): • The subject was randomized into the study. • Study medication was dispensed in accordance with the subjects randomized treatment arm. • Blood samples were drawn pre-dose for baseline levels and on Visit 9 (Week 24) for exploratory biomarker processing (i.e., cytokine and Ref-1 levels) to evaluate pharmacodynamic properties. • Subjects were instructed to administer their study medication (Compound 1 or placebo) each day, with 3 tablets every morning and 2 tablets every evening. Study medication was to be taken at approximately the same time each day and may be taken with or without food.
(§3) At the Second Treatment Visit (Visit 6, Week 12±2 Days), subjects were to return to the site for the following series of safety and efficacy assessments: drug accountability, concomitant medications, urine pregnancy test (only for women of childbearing potential), HR/BP/vital signs, BCVA (ETDRS), DRSS, CST (SD-OCT), blood draw for PK, blood chemistry, blood hematology, biomicroscopy, ophthalmoscopy, IOP, eGFR, and AEs. Following the completion of the assessments, used medication kits were collected for accountability (by counting the number of unused tablets), and new study medication kits dispensed.
(§4) At the Third Treatment Visit (Visit 9, Week 24±2 Days), subjects were to return to the site for the following series of safety and efficacy assessments: drug accountability, concomitant medications, urine pregnancy test (only for women of childbearing potential), physical examination, HR/BP/vital signs, BCVA (ETDRS), DRSS, CST (SD-OCT), blood chemistry, blood hematology, biomicroscopy, ophthalmoscopy, IOP, eGFR, AEs, and blood draw for exploratory biomarkers (ELISA, cytokine panel, comprehensive metabolic panel). Visit 9 (Week 24) was the end of the treatment period. Study medication was returned for accountability (by counting the number of unused tablets), and no further study medication dispensed.
(§5) Safety endpoints include: • Incidence and severity of systemic and ocular AEs, • Change from baseline in body system assessments, • Change from baseline in vital sign measurements, • Change from baseline in clinical laboratory assay results (blood chemistry, hematology), • Change from baseline in intraocular pressure (IOP), • Change from baseline in slit-lamp examination parameters, • Change from baseline in dilated funduscopic examination parameters, • Percent of subjects with a decrease of ≥10 letters in BCVA compared to baseline at Week 12 and Week 24, • Percent of subjects progressing to center-involved DME (eligible for rescue treatment at Week 12 and Week 24), • Percent of subjects with a worsening in DRSS of ≥2 steps in the study eye at Week 12 and Week 24, • Percent of subjects developing anterior segment neovascularization at Week 12 and Week 24, • Percent of subjects rescued (intravitreal anti-VEGF injection, laser PRP, focal/grid laser treatment, or surgery [vitrectomy]) at the discretion of the Investigator at Week 12 and Week 24, and • Change from baseline in estimated glomerular filtration rate (eGFR) at Week 12 and Week 24. […]

[2] = Clinical study safety: glomerular filtration rate; details: combined placebo + Compound 1 patients; for Mean Glomerular Filtration Rate: Baseline 92.53
Text: as §1, §2, §3, §4, §5

[3] = Clinical study safety: heart rate; details: combined placebo + Compound 1 patients; for Mean Heart Rate: Baseline 76.7
Text: as §1, §2, §3, §4, §5

[4] = Clinical study safety: systolic blood pressure; details: combined placebo + Compound 1 patients; for Mean Systolic Blood Pressure: Baseline 136.9
Text: as §1, §2, §3, §4, §5

[5] = Clinical study safety: diastolic blood pressure; details: combined placebo + Compound 1 patients; for Mean Diastolic Blood Pressure: Baseline 80.3
Text: as §1, §2, §3, §4, §5

For `CCCCCCCCC/C(=C\C1=C(C)C(=O)C(OC)=C(OC)C1=O)C(=O)O` [Compound 1, (E)-2-((4,5-dimethoxy-2-methyl-3,6-dioxocyclohexa-1,4-dien-1-yl)methylene)undecanoic acid], the “Mean Concentration of Aspartate Aminotransferase in Subjects' Blood” value ([1]; Week 12, 53 subjects) was 19.2 IU/L, the “Mean Concentration of Aspartate Aminotransferase in Subjects' Blood” value ([1]; Week 24, 24 subjects) was 17.5 IU/L and the “change in mean concentration of aspartate aminotransferase relative to Baseline” value ([1]; week 12, 50 subjects) was −0.5 IU/L. For the same compound, the “reduction in mean concentration of aspartate aminotransferase relative to Baseline” value ([1]; week 12, 50 subjects) was 3%, the “change in mean concentration of aspartate aminotransferase relative to Baseline” value ([1]; week 24, 22 subjects) was −1.8 IU/L and the “reduction in mean concentration of aspartate aminotransferase relative to Baseline” value ([1]; week 24, 22 subjects) was 9%. The “Mean Glomerular Filtration Rate” value ([2]; Week 12, 52 subjects) was 83.85 mL/min/1.73 m^2, the “Mean Glomerular Filtration Rate” value ([2]; Week 24, 24 subjects) was 77.7 mL/min/1.73 m^2 and the “change in mean glomerular filtrate rate relative to Baseline” value ([2]; week 12, 47 subjects) was −2.24 mL/min/1.73 m^2. For the same compound, the “reduction in mean glomerular filtrate rate relative to Baseline” value ([2]; week 12, 47 subjects) was 2%, the “change in mean glomerular filtrate rate relative to Baseline” value ([2]; week 24, 21 subjects) was −9.84 mL/min/1.73 m^2 and the “reduction in mean glomerular filtrate rate relative to Baseline” value ([2]; week 24, 21 subjects) was 11%. The “Mean Heart Rate” value ([3]; Week 12, 62 subjects) was 76.3 beats/min, the “Mean Heart Rate” value ([3]; Week 24, 27 subjects) was 80.7 beats/min and the “change in mean heart rate relative to Baseline” value ([3]; week 12, 62 subjects) was “+0.9 beats/min”. For the same compound, the “increase in mean heart rate relative to Baseline” value ([3]; week 12, 62 subjects) was 1%, the “change in mean heart rate relative to Baseline” value ([3]; week 24, 27 subjects) was “+4.3 beats/min” and the “increase in mean heart rate relative to Baseline” value ([3]; week 24, 27 subjects) was 6%. The “Mean Systolic Blood Pressure” value ([4]; Week 12, 62 subjects) was 132 mmHg, the “Mean Systolic Blood Pressure” value ([4]; Week 24, 27 subjects) was 139.7 mmHg and the “change in mean systolic blood pressure relative to Baseline” value ([4]; week 12, 62 subjects) was −4.7 mmHg. The “reduction in mean systolic blood pressure relative to Baseline” value ([4]; week 12, 62 subjects) was 3%, the “change in mean systolic blood pressure relative to Baseline” value ([4]; week 24, 27 subjects) was −0.7 mmHg and the “reduction in mean systolic blood pressure relative to Baseline” value ([4]; week 24, 27 subjects) was 1%. For the same compound, the “Mean Diastolic Blood Pressure” value ([5]; Week 12, 62 subjects) was 77.1 mmHg, the “Mean Diastolic Blood Pressure” value ([5]; Week 24, 27 subjects) was 80.4 mmHg and the “change in mean diastolic blood pressure relative to Baseline” value ([5]; week 12, 62 subjects) was −2.8 mmHg. The “reduction in mean diastolic blood pressure relative to Baseline” value ([5]; week 12, 62 subjects) was 3%, the “change in mean diastolic blood pressure relative to Baseline” value ([5]; week 24, 27 subjects) was “+1 mmHg” and the “increase in mean diastolic blood pressure relative to Baseline” value ([5]; week 24, 27 subjects) was 1%.
